Results from ChEMBL document CHEMBL4680265, “Anti-tubulin agent vinorelbine inhibits metastasis of cancer cells by regulating epithelial-mesenchymal transition” (Eur J Med Chem, 2020).
Active and inactive are the calls of the source. No cut-off for these calls is given here.

What was measured:
NCI-H1975 [1] = assay: Induction of cell cycle arrest in human NCI-H1975 cells assessed as increase in G2/M phase accumulation at 1 nM incubated for 24 hrs by propidium iodide staining based flow cytometry analysis relative to control; type: functional
NCI-H1975 [2] = assay: Induction of apoptosis in human NCI-H1975 cells assessed as decrease in Bcl-xl expression at 1 to 100 nM incubated for 48 hrs by Western blot analysis; type: functional, cell-based; conditions: dose 1-100 nM
HepG2 [3] = assay: Inhibition of epithelial-mesenchymal transition in human HepG2 cells assessed as downregulation of Snail-1 by Western blot analysis; type: functional, cell-based; conditions: dose 0.1-10 µM
NCI-H1975 [4] = assay: Inhibition of epithelial-mesenchymal transition in human NCI-H1975 cells assessed as downregulation of MMP-9 by Western blot analysis; type: functional, cell-based; conditions: dose 1-100 nM
HepG2 [5] = assay: Induction of cell cycle arrest in human HepG2 cells assessed as decrease in cyclin B1 level at 0.1 to 10 uM incubated for 24 hrs by Western blot analysis; type: functional, cell-based; conditions: dose 0.1-10 µM
NCI-H1975 [6] = assay: Induction of apoptosis in human NCI-H1975 cells assessed as increase in Bax expression at 1 to 100 nM incubated for 48 hrs by Western blot analysis; type: functional, cell-based; conditions: dose 1-100 nM
HCT-116 [7] = assay: Inhibition of colony formation in human HCT-116 cells at 0.01 to 1 uM incubated for 3 to 4 days by crystal violet staining based assay; type: functional, cell-based; conditions: dose 0.01-1 µM, time 3-4 day
HCT-116 [8] = assay: Induction of cell cycle arrest in human HCT-116 cells assessed as decrease in cyclin B1 level at 0.01 to 1 uM incubated for 24 hrs by Western blot analysis; type: functional, cell-based; conditions: dose 0.01-1 µM
HepG2 [9] = assay: Cytotoxicity against human HepG2 cells assessed as reduction in cell viability incubated for 48 hrs by MTT assay; type: functional, cell-based; conditions: HepG2, 48 h
HepG2 [10] = assay: Antimigratory activity against human HepG2 cells assessed as reduction in migration at 0.1 nM measured after 96 hrs by scratch wound healing based inverted microscopic analysis relative to control; type: functional
HCT-116 [11] = assay: Antimigratory activity against human HCT-116 cells assessed as reduction in migration at 1 nM measured after 96 hrs by scratch wound healing based inverted microscopic analysis relative to control; type: functional
HepG2 [12] = assay: Antiinvasive activity against human HepG2 cells assessed as reduction in invasion at 0.1 to 10 nM measured after 48 hrs by DAPI staining based transwell assay; type: functional, cell-based; conditions: dose 0.1-10 nM
HCT-116 [13] = assay: Inhibition of epithelial-mesenchymal transition in human HCT-116 cells assessed as decrease in N-cadherin expression at 0.01 to 1 uM by Western blot analysis; type: functional, cell-based; conditions: dose 0.01-1 µM
HepG2 [14] = assay: Inhibition of epithelial-mesenchymal transition in human HepG2 cells assessed as […] in E-cadherin expression at 0.1 to 10 uM by Western blot analysis; type: functional, cell-based; conditions: dose 0.1-10 µM
NCI-H1975 [15] = assay: Antiinvasive activity against human NCI-H1975 cells assessed as reduction in invasion at 1 to 10 nM measured after 48 hrs by DAPI staining based transwell assay; type: functional, cell-based; conditions: dose 1-10 nM
NCI-H1975 [16] = assay: Induction of apoptosis in human NCI-H1975 cells assessed as decrease in Bcl-2 expression at 1 to 100 nM incubated for 48 hrs by Western blot analysis; type: functional, cell-based; conditions: dose 1-100 nM
HepG2 [17] = assay: Cytotoxicity against human HepG2 cells assessed as effect on cell morphology incubated for 48 hrs by DAPI staining based fluorescence microscopy; type: functional; conditions: dose 0.1-10 µM
HepG2 [18] = assay: Antimigratory activity against human HepG2 cells assessed as reduction in migration at 1 nM measured after 96 hrs by scratch wound healing based inverted microscopic analysis relative to control; type: functional
HepG2 [19] = assay: Inhibition of epithelial-mesenchymal transition in human HepG2 cells assessed as decrease in N-cadherin expression at 0.1 to 10 uM by Western blot analysis; type: functional, cell-based; conditions: dose 0.1-10 µM
NCI-H1975 [20] = assay: Antimigratory activity against human NCI-H1975 cells assessed as reduction in migration at 5 nM measured after 96 hrs by scratch wound healing based inverted microscopic analysis relative to control; type: functional
HepG2 [21] = assay: Induction of apoptosis in human HepG2 cells assessed as increase in late apoptotic cells at 0.1 to 10 uM incubated for 48 hrs by annexin V-FITC and PI staining based flow cytometry analysis; type: functional, cell-based; conditions: dose 0.1-10 µM
NCI-H1975 [22] = assay: Inhibition of epithelial-mesenchymal transition in human NCI-H1975 cells assessed as decrease in N-cadherin expression at 1 to 100 nM by Western blot analysis; type: functional, cell-based; conditions: dose 1-100 nM
NCI-H1975 [23] = assay: Induction of apoptosis in human NCI-H1975 cells assessed as increase in late apoptotic cells at 1 to 100 nM incubated for 48 hrs by annexin V-FITC and PI staining based flow cytometry analysis; type: functional, cell-based; conditions: dose 1-100 nM
HCT-116 [24] = assay: Antimigratory activity against human HCT-116 cells assessed as reduction in migration at 10 nM measured after 96 hrs by scratch wound healing based inverted microscopic analysis relative to control; type: functional
HepG2 [25] = assay: Induction of apoptosis in human HepG2 cells assessed as increase in Bax expression at 0.1 to 10 uM incubated for 48 hrs by Western blot analysis; type: functional, cell-based; conditions: dose 0.1-10 µM
HCT-116 [26] = assay: Inhibition of epithelial-mesenchymal transition in human HCT-116 cells assessed as increase in E-cadherin expression at 0.01 to 1 uM by Western blot analysis; type: functional, cell-based; conditions: dose 0.01-1 µM
NCI-H1975 [27] = assay: Cytotoxicity against human NCI-H1975 cells assessed as effect on cell morphology incubated for 48 hrs by DAPI staining based fluorescence microscopy; type: functional; conditions: dose 1-100 nM
HepG2 [28] = assay: Inhibition of colony formation in human HepG2 cells at 0.1 to 10 uM incubated for 3 to 4 days by crystal violet staining based assay; type: functional, cell-based; conditions: dose 0.1-10 µM, time 3-4 day
HCT-116 [29] = assay: Induction of apoptosis in human HCT-116 cells assessed as decrease in Bcl-xl expression at 0.01 to 1 uM incubated for 48 hrs by Western blot analysis; type: functional, cell-based; conditions: dose 0.01-1 µM
HCT-116 [30] = assay: Inhibition of epithelial-mesenchymal transition in human HCT-116 cells assessed as downregulation of MMP-9 by Western blot analysis; type: functional, cell-based; conditions: dose 0.01-1 µM

CCC1=C[C@@H]2CN(C1)Cc1c([nH]c3ccccc13)[C@@](C(=O)OC)(c1cc3c(cc1OC)N(C)[C@H]1[C@@](O)(C(=O)OC)[C@H](OC(C)=O)[C@]4(CC)C=CCN5CC[C@]31[C@@H]54)C2 [VINORELBINE]
Activity (NCI-H1975 [1]): 17.39% | Activity (NCI-H1975 [2]): Active | inhibition (HepG2 [3]): Dose-dependent effect | inhibition (NCI-H1975 [4]): Dose-dependent effect | Activity (HepG2 [5]): Active | Activity (NCI-H1975 [6]): Active | inhibition (HCT-116 [7]): Active | Activity (HCT-116 [8]): inactive | IC50 (HepG2 [9]): 110 nM | inhibition at 0.0001 µM (HepG2 [10]): 11.7% | inhibition at 0.001 µM (HCT-116 [11]): 13% | inhibition (HepG2 [12]): Active | inhibition (HCT-116 [13]): Active | inhibition (HepG2 [14]): inactive | inhibition (NCI-H1975 [15]): Active | Activity (NCI-H1975 [16]): Active | Activity (HepG2 [17]): Dose-dependent effect | inhibition at 0.001 µM (HepG2 [18]): 33.1% | inhibition (HepG2 [19]): Active | inhibition at 0.005 µM (NCI-H1975 [20]): 52.6% | Activity (HepG2 [21]): Active | inhibition (NCI-H1975 [22]): Active | Activity (NCI-H1975 [23]): Active | inhibition at 0.01 µM (HCT-116 [24]): 50.9% | Activity (HepG2 [25]): Active | inhibition (HCT-116 [26]): Active | Activity (NCI-H1975 [27]): Dose-dependent effect | inhibition (HepG2 [28]): Active | Activity (HCT-116 [29]): Active | inhibition (HCT-116 [30]): Dose-dependent effect
